# Experimental data reported in US8759256B2, “Herbicide composition comprising herbicide compound in acid form and acidifying agent” (priority 2001, dated 2014).
# Tests used:
# [1] = cited from earlier work; for pKas: Table 1, acidic herbicide; for pKa: imidazolinone acids
# [2] = tested on: corn; assay: greenhouse visual injury rating, Examples 9-10, corn; format: in vivo; conditions: Two Week
# From the text: (§1) Each treatment in the experiment was replicated three times. An untreated control was also included in the experiment.
# (§2) These treatments were compared to PCC-1190 and PCC-1189 without the addition of an acidifying agent, a standard imidazolinone acid formulation (PURSUIT and SCEPTER), and an untreated control.
# (§3) For the experiments, greenhouse flats 26 cm by 6 cm deep were filled with Metro Mix 350 potting soil. The soil was pre-wetted before filling the flats. Six furrows were pressed into the soil in each flat using a custom designed form. Corn, tame oats, velvet leaf (not used in Example 10), wheat, pinto beans, and sunflower were planted in each tray. One species was planted in each of the six rows in each flat. Five seeds were planted in each row of corn, pinto bean, and sunflower. Six seeds were planted in each row of tame oat and wheat. Because velvet leaf seeds were so small, the seeds were sprinkled in each row and the number of such seeds were not counted. Each flat was covered with 2 cm of Metro Mix 350 potting soil and placed in the greenhouse. Greenhouse conditions were 28/20 C day/night temperatures and 16/8 h day/night periods. Light was supplemented with 400 W sodium halide lights. The plants were allowed to germinate and grow in the greenhouse for 2 weeks and then treated. Treatments were mixed using serial dilutions. Each dilution reduced the herbicide rate by one half. All acidifying agents (e.g., PCC-I174, LI-136, sulfuric acid, and phosphoric acid) were calculated and mixed to provide acid concentrations of 0.9%.
# (§4) At the time of treatment, crops were at the following stages: corn—2 to 3 lf, tame oat—2 to 3 lf, velvet leaf 2 if (not used in Example 10), pinto bean—2-3 lf, wheat—4 to 5 lf, and sunflower-2 lf. Plants were treated using a greenhouse track sprayer equipped with an 8001E nozzle and calibrated to deliver 140 L ha-1 at the height of the crop canopy. Each treatment was simultaneously applied to three trays of plants, one for each replicate. After treatment, the plants were left in the head house to dry and then transferred to the greenhouse. Plants in each treatment were evaluated visually for injury 1 week and 2 weeks after treatment.
# (§5) The injury caused by the herbicide treatment was rated visually. […] All the plants of each species in each replication were given a single rating. A rating of 0=no injury—the plants look the same as the untreated. A rating of 100=dead—usually highly necrotic, brown and no chance of producing seed.
# (§6) The ingredients of the herbicide compositions as applied are listed in the following tables, and were diluted with water and used at the rates indicated for herbicide ingredients and acidifying agents.
# [3] = tested on: tame oat; assay: greenhouse visual injury rating, Examples 9-10, tame oat; format: in vivo; conditions: Two Week
# From the text: as §1, §2, §3, §4, §5, §6
# [4] = tested on: wheat; assay: greenhouse visual injury rating, Examples 9-10, wheat; format: in vivo; conditions: Two Week
# From the text: as §1, §2, §3, §4, §5, §6
# [5] = tested on: pinto bean; assay: greenhouse visual injury rating, Examples 9-10, pinto bean; format: in vivo; conditions: Two Week
# From the text: as §1, §2, §3, §4, §5, §6
# [6] = tested on: sunflower; assay: greenhouse visual injury rating, Examples 9-10, sunflower; format: in vivo; conditions: Two Week
# From the text: as §1, §2, §3, §4, §5, §6
# [7] = PCC-1189 0.031 LB AE/A + PHOSPHORIC ACID 2 % V/V
# [8] = PCC-1189 0.245 3 AE/A + PHOSPHORIC ACID 2 V/V
# [9] = PCC-1189 0.49 3 AE/A + PHOSPHORIC ACID 2 V/V
# [10] = PCC-1189 .0155 LB AE/A + PHOSPHORIC ACID 2 % V/V
# [11] = PCC-1189 .0613 LB AE/A + PHOSPHORIC ACID 2 % V/V
# [12] = PCC-1189 .1225 LB AE/A + PHOSPHORIC ACID 2 % V/V
# [13] = PCC-1189 0.031 LB AE/A + SULFURIC ACID 2 % V/V
# [14] = PCC-1189 0.245 LB AE/A + SULFURIC ACID 2 % V/V
# [15] = PCC-1189 0.49 LB AE/A + SULFURIC ACID 2 % V/V
# [16] = PCC-1189 .0155 LB AE/A + SULFURIC ACID 2 % V/V
# [17] = PCC-1189 .0613 LB AE/A + SULFURIC ACID 2 % V/V
# [18] = PCC-1189 .1225 LB AE/A + SULFURIC ACID 2 % V/V
molecule,measurement,setting,value
"O=C(O)CCCOc1ccc(Cl)cc1Cl [2,4-DB]",pKas,[1],4.8
CC(C)C1(C)N=C(c2nc3ccccc3cc2C(=O)O)NC1=O (centres unmarked) [Imazaquin],pKas,[1],3.8
same,pKa,[1],approximately 3.8
CCc1cnc(C2=NC(C)(C(C)C)C(=O)N2)c(C(=O)O)c1 (centres unmarked) [Imazethapyr],pKas,[1],3.9
same,pKa,[1],approximately 3.9
O=P(O)(O)O [PHOSPHORIC ACID],"injury rated visually (0=no injury, 100=dead), Corn",[2]; [7],10.0
same,"injury rated visually (0=no injury, 100=dead), Corn",[2]; [8],10.0
same,"injury rated visually (0=no injury, 100=dead), Corn",[2]; [9],20.0
same,"injury rated visually (0=no injury, 100=dead), Corn",[2]; [10],10.0
same,"injury rated visually (0=no injury, 100=dead), Corn",[2]; [11],15.0
same,"injury rated visually (0=no injury, 100=dead), Corn",[2]; [12],10.0
same,"injury rated visually (0=no injury, 100=dead), Tame Oat",[3]; [7],0.0
same,"injury rated visually (0=no injury, 100=dead), Tame Oat",[3]; [8],0.0
same,"injury rated visually (0=no injury, 100=dead), Tame Oat",[3]; [9],0.0
same,"injury rated visually (0=no injury, 100=dead), Tame Oat",[3]; [10],0.0
same,"injury rated visually (0=no injury, 100=dead), Tame Oat",[3]; [11],0.0
same,"injury rated visually (0=no injury, 100=dead), Tame Oat",[3]; [12],0.0
same,"injury rated visually (0=no injury, 100=dead), Wheat",[4]; [7],0.0
same,"injury rated visually (0=no injury, 100=dead), Wheat",[4]; [8],0.0
same,"injury rated visually (0=no injury, 100=dead), Wheat",[4]; [9],0.0
same,"injury rated visually (0=no injury, 100=dead), Wheat",[4]; [10],0.0
same,"injury rated visually (0=no injury, 100=dead), Wheat",[4]; [11],0.0
same,"injury rated visually (0=no injury, 100=dead), Wheat",[4]; [12],0.0
same,"injury rated visually (0=no injury, 100=dead), Pinto Bean",[5]; [7],20.0
same,"injury rated visually (0=no injury, 100=dead), Pinto Bean",[5]; [8],30.0
same,"injury rated visually (0=no injury, 100=dead), Pinto Bean",[5]; [9],30.0
same,"injury rated visually (0=no injury, 100=dead), Pinto Bean",[5]; [10],10.0
same,"injury rated visually (0=no injury, 100=dead), Pinto Bean",[5]; [11],30.0
same,"injury rated visually (0=no injury, 100=dead), Pinto Bean",[5]; [12],25.0
same,"injury rated visually (0=no injury, 100=dead), Sunflower",[6]; [7],50.0
same,"injury rated visually (0=no injury, 100=dead), Sunflower",[6]; [8],60.0
same,"injury rated visually (0=no injury, 100=dead), Sunflower",[6]; [9],50.0
same,"injury rated visually (0=no injury, 100=dead), Sunflower",[6]; [10],50.0
same,"injury rated visually (0=no injury, 100=dead), Sunflower",[6]; [11],40.0
same,"injury rated visually (0=no injury, 100=dead), Sunflower",[6]; [12],50.0
Nc1c(Cl)c(Cl)nc(C(=O)O)c1Cl [Picloram],pKas,[1],2.3
O=S(=O)(O)O [SULFURIC ACID],"injury rated visually (0=no injury, 100=dead), Corn",[2]; [13],20.0
same,"injury rated visually (0=no injury, 100=dead), Corn",[2]; [14],20.0
same,"injury rated visually (0=no injury, 100=dead), Corn",[2]; [15],20.0
same,"injury rated visually (0=no injury, 100=dead), Corn",[2]; [16],10.0
same,"injury rated visually (0=no injury, 100=dead), Corn",[2]; [17],10.0
same,"injury rated visually (0=no injury, 100=dead), Corn",[2]; [18],10.0
same,"injury rated visually (0=no injury, 100=dead), Tame Oat",[3]; [13],0.0
same,"injury rated visually (0=no injury, 100=dead), Tame Oat",[3]; [14],0.0
same,"injury rated visually (0=no injury, 100=dead), Tame Oat",[3]; [15],10.0
same,"injury rated visually (0=no injury, 100=dead), Tame Oat",[3]; [16],0.0
same,"injury rated visually (0=no injury, 100=dead), Tame Oat",[3]; [17],0.0
same,"injury rated visually (0=no injury, 100=dead), Tame Oat",[3]; [18],0.0
same,"injury rated visually (0=no injury, 100=dead), Wheat",[4]; [13],0.0
same,"injury rated visually (0=no injury, 100=dead), Wheat",[4]; [14],0.0
same,"injury rated visually (0=no injury, 100=dead), Wheat",[4]; [15],10.0
same,"injury rated visually (0=no injury, 100=dead), Wheat",[4]; [16],0.0
same,"injury rated visually (0=no injury, 100=dead), Wheat",[4]; [17],0.0
same,"injury rated visually (0=no injury, 100=dead), Wheat",[4]; [18],0.0
same,"injury rated visually (0=no injury, 100=dead), Pinto Bean",[5]; [13],10.0
same,"injury rated visually (0=no injury, 100=dead), Pinto Bean",[5]; [14],20.0
same,"injury rated visually (0=no injury, 100=dead), Pinto Bean",[5]; [15],30.0
same,"injury rated visually (0=no injury, 100=dead), Pinto Bean",[5]; [16],10.0
same,"injury rated visually (0=no injury, 100=dead), Pinto Bean",[5]; [17],0.0
same,"injury rated visually (0=no injury, 100=dead), Pinto Bean",[5]; [18],10.0
same,"injury rated visually (0=no injury, 100=dead), Sunflower",[6]; [13],30.0
same,"injury rated visually (0=no injury, 100=dead), Sunflower",[6]; [14],60.0
same,"injury rated visually (0=no injury, 100=dead), Sunflower",[6]; [15],80.0
same,"injury rated visually (0=no injury, 100=dead), Sunflower",[6]; [16],30.0
same,"injury rated visually (0=no injury, 100=dead), Sunflower",[6]; [17],40.0
same,"injury rated visually (0=no injury, 100=dead), Sunflower",[6]; [18],40.0
Imazamethbenz,pKas,[1],2.9
same,pKa,[1],approximately 2.9
